# Article PMC11640089, “JRM-28, a Novel HDAC2 Inhibitor, Upregulates Plasticity-Associated Proteins in Hippocampal Neurons and Enhances Morphological Plasticity via Activation of CREB: Implications for Alzheimer’s Disease” (Cells, 2024)
# Values joined by “and” are separate entries in the source; they are usually repeats but may differ in a detail not shown here. Equal values may be shown once. Read-outs that look alike come from different tables or passages of the source.
# Columns and labels:
# [1] = molecular target: HDAC2 (Homo sapiens, UniProt Q92769); experiment: HDAC2 inhibition assay, luminometric method (HDAC-Glo I/II); assay type: biochemical; set-up: purchased BPS Bioscience 50002; settings: HDAC2 0.5 nM, read-out: IC50 HDAC2 inhibition (luminescence)
# Procedure: HDAC2 inhibition assay was performed by either the luminometric or fluorimetric method applying the following procedures. The table (Table 1) represents the details of different HDAC proteins and antibodies used in all biochemical assays.
# HDAC2 inhibition assay was performed by HDAC-Glo™ I/II Assays and Screening System (Catalog# G6420, Promega Corporation, Madison, WI, USA) by the luminometric method according to the manufacturer’s protocol. […] The HDAC-2 inhibition assay was performed as previously described to determine IC values. In brief, the purified HDAC2 was diluted in HDAC assay buffer (provided with the HDAC-Glo™ I/II Assays and Screening System) to the same concentration based on their calculated molar mass. […] Next, 10 µL of JRM-28 after serial dilution was added to 10 µL of diluted HDAC2 in such a way that the final HDAC2 concentration was 0.5 nM in each well of a 384-well microplate (Greiner, Kremsmünster, Austria). After 30 min of incubation, 20 µL of the HDAC-Glo substrate/developing reagent was added to each well according to the manufacturer’s instructions. The 384-well plate was then agitated on an orbital shaker for the mixing of components in each well for another 30 min at room temperature. Finally, luminescence was measured using a POLARstar Omega plate reader (BMG Labtech, Ortenberg, Germany).
# [2] = molecular target: T1, HDAC6 (Homo sapiens, UniProt Q9UBN7); experiment: Fluorimetric HDAC inhibition assay, HDAC6; assay type: biochemical; settings: reduced with DTT
# T1 construct: purchased BPS Bioscience 50056
# T1 sequence (Q9UBN7 1-1215): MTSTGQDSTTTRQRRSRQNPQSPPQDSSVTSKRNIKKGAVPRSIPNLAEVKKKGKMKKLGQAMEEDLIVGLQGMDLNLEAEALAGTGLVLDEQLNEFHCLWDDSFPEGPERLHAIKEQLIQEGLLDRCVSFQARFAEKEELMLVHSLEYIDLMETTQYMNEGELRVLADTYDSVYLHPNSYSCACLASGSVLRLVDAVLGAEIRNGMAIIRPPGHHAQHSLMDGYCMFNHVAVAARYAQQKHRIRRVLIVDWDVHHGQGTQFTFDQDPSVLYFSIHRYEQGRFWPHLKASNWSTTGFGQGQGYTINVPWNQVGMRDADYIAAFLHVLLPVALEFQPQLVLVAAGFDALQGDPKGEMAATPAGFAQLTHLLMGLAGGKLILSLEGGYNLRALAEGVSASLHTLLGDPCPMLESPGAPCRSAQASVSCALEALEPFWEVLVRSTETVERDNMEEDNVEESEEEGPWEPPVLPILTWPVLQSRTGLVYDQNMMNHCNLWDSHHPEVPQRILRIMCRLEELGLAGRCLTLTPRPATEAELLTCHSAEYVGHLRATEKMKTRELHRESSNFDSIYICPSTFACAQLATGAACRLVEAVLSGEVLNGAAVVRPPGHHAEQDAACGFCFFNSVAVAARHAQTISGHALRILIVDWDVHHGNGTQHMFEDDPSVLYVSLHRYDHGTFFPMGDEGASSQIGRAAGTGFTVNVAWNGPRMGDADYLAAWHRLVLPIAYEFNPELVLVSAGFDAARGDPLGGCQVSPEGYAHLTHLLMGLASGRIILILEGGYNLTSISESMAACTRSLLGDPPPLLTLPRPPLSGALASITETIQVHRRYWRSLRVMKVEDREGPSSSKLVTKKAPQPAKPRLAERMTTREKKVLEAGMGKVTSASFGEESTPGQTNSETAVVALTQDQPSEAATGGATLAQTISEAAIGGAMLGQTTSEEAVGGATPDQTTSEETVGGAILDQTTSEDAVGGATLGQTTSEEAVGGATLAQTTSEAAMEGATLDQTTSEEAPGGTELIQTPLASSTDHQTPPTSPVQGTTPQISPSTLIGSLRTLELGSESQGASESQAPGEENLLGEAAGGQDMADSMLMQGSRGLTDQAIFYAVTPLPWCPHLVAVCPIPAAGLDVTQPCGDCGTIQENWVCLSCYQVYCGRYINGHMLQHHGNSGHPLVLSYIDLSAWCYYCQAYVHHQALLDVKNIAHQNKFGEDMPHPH
# Procedure: The inhibition of HDAC1, 2, 3, and 6 by JRM-28 was fluorometrically measured using the HDAC Fluorogenic Assay Kit (Catalog# 50034) by BPS bioscience. Purified recombinant human HDAC1 (Cat# 50051), HDAC3 (Cat# 50003), and HDAC6 (Cat# 50056) were also obtained from BPS Bioscience. The enzyme inhibition assay was performed according to the manufacturer’s protocol. […] Purified recombinant HDAC2 (supplied with the fluorogenic kit) was diluted to 6 ng/µL (5 µL/well with the supplied HDAC assay buffer). HDAC 1, 3, and 6 were also diluted to the optimized concentration (5 µL/well) with the HDAC assay buffer. The activity of JRM-28 was measured along with DTT control and DMSO as blank. After adding 5 µL of the diluted HDAC enzymes in designated wells, the 96-well plate (supplied with the kit) was incubated at 37 °C. Then, the reaction was initiated by adding 5 µL of diluted HDAC substrate to each well, followed by another incubation at 37 °C for 30 min. Next, 50 µL of the developer reagent was added to each well and incubated at room temperature for another 15 min. Finally, fluorescence was measured by a microplate absorbance spectrophotometer (PerkinElmer Enspire 2300 Multilabel Multimode Microplate Reader) with an excitation at λ = 485 nm and detection at λ = 528 nm.
# HDAC2, sequence (Q92769 whole entry): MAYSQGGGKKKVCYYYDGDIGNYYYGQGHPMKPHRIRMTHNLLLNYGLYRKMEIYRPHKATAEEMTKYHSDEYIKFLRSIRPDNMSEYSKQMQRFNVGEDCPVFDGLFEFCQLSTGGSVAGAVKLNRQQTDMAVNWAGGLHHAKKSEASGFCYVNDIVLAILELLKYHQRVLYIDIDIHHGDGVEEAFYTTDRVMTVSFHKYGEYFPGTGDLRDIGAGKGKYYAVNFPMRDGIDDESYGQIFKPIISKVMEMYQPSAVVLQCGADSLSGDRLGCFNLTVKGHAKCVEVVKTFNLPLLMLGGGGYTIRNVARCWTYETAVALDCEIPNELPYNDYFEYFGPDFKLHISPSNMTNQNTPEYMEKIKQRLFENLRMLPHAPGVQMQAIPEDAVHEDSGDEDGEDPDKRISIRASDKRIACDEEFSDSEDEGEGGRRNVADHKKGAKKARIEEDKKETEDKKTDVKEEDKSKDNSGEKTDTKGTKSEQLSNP
structure (smiles),measurement,setting,value
"CN(C(=O)CC(O)/C=C/CCSSCC/C=C/C(O)CC(=O)N(C)c1ccccc1)c1ccccc1 (stereo not drawn) [JRM-20, (4E,4’E)-7,7’-disulfanediylbis(3-hydroxy-N-methyl-N-phenylhept-4-enamide)]",IC50,[1]; without DTT (non-reduced dimer),12.9 µM
CN(C(=O)C[C@@H](O)/C=C/CCS(=O)O)c1ccccc1 [JRM-28a],Hill coefficient HDAC6 (fluorimetric),[2],−5.116
CN(C(=O)C[C@@H](O)/C=C/CCS)c1ccccc1 [JRM-28b],IC50,[1]; in the presence of DTT (reduced),2.7 µM and 2.71 µM
